# Values of other authors as cited in patent US6468944B1, “Method of preparing glyphosate herbicide formulations” (priority 1991, dated 2002).
smiles,measurement,value
"O=C(O)CNCP(=O)(O)O [Glyphosate, N-phosphonomethylglycine]",solubility in water,relatively insoluble in water
